Data: patent US6936585B2, “Corticotropin releasing factor 2 receptor agonists” (priority 2002, dated 2005)
Peptide text beside a SMILES is read from it.

Legend:
[1] = biological target: T1, CRF2R (Homo sapiens, UniProt Q13324); test: CRF2R agonist activation (EC50 / Emax), called comparative CRF binding; type: cell-based; conditions: read-out: CRF2R Emax
T1 sequence (Q13324 1-411): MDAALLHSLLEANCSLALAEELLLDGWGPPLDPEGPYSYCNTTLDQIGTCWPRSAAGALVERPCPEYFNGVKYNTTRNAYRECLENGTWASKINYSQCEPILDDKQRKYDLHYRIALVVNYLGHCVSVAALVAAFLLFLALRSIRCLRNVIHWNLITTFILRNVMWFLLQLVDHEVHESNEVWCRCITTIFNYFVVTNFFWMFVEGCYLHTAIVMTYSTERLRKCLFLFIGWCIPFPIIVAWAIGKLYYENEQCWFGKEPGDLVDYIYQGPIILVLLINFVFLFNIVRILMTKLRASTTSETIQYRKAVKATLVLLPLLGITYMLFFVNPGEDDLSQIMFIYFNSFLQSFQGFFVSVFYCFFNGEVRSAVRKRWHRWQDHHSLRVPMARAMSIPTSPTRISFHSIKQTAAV
Procedure, shortened: (§1)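 Read-out is Gαs-driven cAMP induction, quantified directly in lysates or through CRE-reporter gene expression, after treating CRF1R- or CRF2R-expressing cells with peptide. Vehicle-treated cells serve as the comparison.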

[2] = biological target: T2, CRF1R (Homo sapiens, UniProt P34998); test: CRF1R agonist activation (EC50 / Emax), called comparative CRF binding; type: cell-based; conditions: read-out: CRF1R Emax
T2 sequence (P34998 24-415): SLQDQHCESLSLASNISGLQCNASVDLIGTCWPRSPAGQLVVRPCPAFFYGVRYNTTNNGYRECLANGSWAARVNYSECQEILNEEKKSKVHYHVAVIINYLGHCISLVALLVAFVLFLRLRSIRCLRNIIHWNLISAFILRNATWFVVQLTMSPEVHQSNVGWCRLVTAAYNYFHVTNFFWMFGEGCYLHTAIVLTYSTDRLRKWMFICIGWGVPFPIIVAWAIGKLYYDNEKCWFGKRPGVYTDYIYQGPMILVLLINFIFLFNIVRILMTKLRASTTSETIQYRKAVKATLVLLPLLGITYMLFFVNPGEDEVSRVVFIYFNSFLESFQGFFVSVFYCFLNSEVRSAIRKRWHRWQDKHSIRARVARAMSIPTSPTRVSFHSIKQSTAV
Procedure, shortened: as §1

CC[C@H](C)[C@H](NC(=O)[C@H](C)NC(=O)[C@H](CC(N)=O)NC(=O)[C@H](CCC(N)=O)NC(=O)[C@H](CCC(=O)O)NC(=O)[C@H](C)NC(=O)[C@H](CCCNC(=N)N)NC(=O)[C@H](CCC(=O)O)NC(=O)[C@H](CCCNC(=N)N)NC(=O)[C@H](CCC(N)=O)NC(=O)[C@H](CO)NC(=O)[C@H](CCC(N)=O)NC(=O)[C@@H](NC(=O)[C@H](CCCNC(=N)N)NC(=O)[C@H](C)NC(=O)[C@H](CC(C)C)NC(=O)[C@H](CCC(=O)O)NC(=O)[C@H](CC(C)C)NC(=O)[C@H](CC(C)C)NC(=O)[C@@H](NC(=O)[C@H](CCCNC(=N)N)NC(=O)[C@H](CC(C)C)NC(=O)[C@H](CC(C)C)NC(=O)[C@@H](NC(=O)[C@H](Cc1ccccc1)NC(=O)[C@@H]1CCCN1C(=O)[C@H](CC(C)C)NC(=O)[C@H](CC(=O)O)NC(=O)[C@@H](NC(=O)[C@H](CO)NC(=O)[C@H](CC(C)C)NC(=O)[C@H](CO)NC(=O)[C@@H]1CCCN1C(=O)[C@H](CC(N)=O)NC(=O)[C@@H](N)CC(=O)O)[C@@H](C)CC)[C@@H](C)CC)[C@@H](C)O)[C@@H](C)O)C(=O)N[C@H](C(=O)N[C@@H](Cc1ccccc1)C(=O)N[C@@H](C)C(=O)N[C@@H](CO)C(=O)N[C@H](C(N)=O)C(C)C)[C@@H](C)CC [compound 181] (H-DNPSLSIDLPFILLRTLLELARTQSQRERAEQNAIIFASV-NH2; N-terminus assumed) gave an Emax [1] of 97.8% and an Emax [2] of 100%.
